The results in this text go back to patent publication US4863898A, “Amino acid chelated compositions for delivery to specific biological tissue sites” (priority 1986, dated 1989).

Like-named read-outs stand apart in the source and are kept apart here.

On the set-up of data set [1]: species or system rats. Conditions: rat, in vivo. The source says:
Leucine was used as the ligand and zinc as the metal. Composition A is therefore a mixture, or at best a complex consisting of one mole of leucine (mole weight 131.17) and one more of zinc chloride. […] Composition B consisted of two moles of leucine admixed with one mole of zinc chloride to form a mixture. […] Composition A contained leucine equivalent to 10 microliters of 0.76M. leucine and was adjusted to pH 9 with 20 microliters of 0.05 N NaOH. Composition B contained leucine equivalent to 20 microliters of 0.76M. leucine containing 20 microliters distilled water in lieu of pH adjustment. The pH of this solution was about 3. Composition C contained the same ingredients as Composition B except in chelated form and the pH was adjusted to 9 with 20 microliters of 0.13M Na2 CO3. The procedure of Example lI was fo lowed using three rats in each group. Upon sacrificing, blood was drawn and certain tissues excised to determine the amount of radioactive zinc which had migrated to the blood and tissues two hours post injection.

Data set [2] in a line: stability constant of amino acid chelate. It is filed as physicochemical. The source says: The determination of stability constants of amino acid chelates is well documented in U.S. Pat. No. 4,167,564 and the means by which amino acid chelates may be formulated to provide optimal stability constants within the required ranges are disclosed in U.S. Pat. Nos. 4,176,564 and 4,172,072.

Data set [3] is described as follows: radioactive zinc in tissues after injection into the jugular vein (Example IV). It is filed as in vivo. The note with it: rats, two hours post injection, group mean. The method, then:
The method of Example III was again utilized except that the manganese was replaced by zinc. […] The same dosage as in Example III was administered. Only six rats were utilized for this experiment, three in each group, and they were sacrificed two hours post injection into the jugular vein. Six tissues, i.e. brain, skeletal muscle, liver, hypothalamus, pituitary and uterus were analyzed for radioactive zinc with the following mean results for each group reported in terms of cc/min/mg of tissue.

A short description of data set [4]: radioactive zinc in male sex tissues after intravenous dosage (Example II). The note with it: rats, intravenous 0.06 mg zinc, 24 hours post treatment, group average. The method, then: Three groups of rats, six in each group, weighing 250 gms±10 gms. were given an intravenous dosage, of 0.06 mg zinc containing 10 microcuries of radioactive zinc.
Each rat was sacrificed 24 hours post treatment and the testes, epididymis, and seminal visicle of each were exposed, excised and a determination was made of the amount of radioactive zinc in each.

For data set [5] the following is noted: female rats, intravenous 0.06 mg Ca, after two hours. The method, then: Six female rats, weighing 250 gms.±10 gms., were divided into two groups. All rats were anethetized with 0.15 mls sodium phenobarbital USP. […] To the other three, the same amount of calcium was administered in the form a calcium chloride.
After two hours, all of he rats were sacrificed and the hypothalamus was removed and read for radioactivity.

For the molecule `CC(C)C[C@H](N)C(=O)[O-].CC(C)C[C@H](N)C(=O)[O-].[Zn+2]` [Comp. C, zinc-leucine amino acid chelate], in data set [1], the “radioactive zinc in Blood” value amounted to 1.64 cc/min/mg, the “radioactive zinc in Heart” value was found to be 6.32 cc/min/mg, the “radioactive zinc in Kidney” value came out at 8.55 cc/min/mg and the “radioactive zinc in Liver” value is listed as 8.65 cc/min/mg. Besides, in data set [1], the “radioactive zinc in Muscle” value is on record as 3.88 cc/min/mg; the “radioactive zinc, Total of blood and tissues” value amounted to 31.45 cc/min/mg.

With `NCC(=O)[O-].NCC(=O)[O-].[Zn+2]` [GROUP II, zinc-glycine chelate], the stability constant in data set [2] is reported as 10^7.

On to `[Cl-].[Cl-].[Zn+2]` [Zinc Chloride, zinc chloride], for which, in data set [3], the “radioactive zinc in Brain” value was determined as 5.1 cc/min/mg, the “radioactive zinc in Hypothalamus” value is 3.0 cc/min/mg, the “radioactive zinc in Liver” value was 94.2 cc/min/mg and the “radioactive zinc in Pituitary” value worked out at 17.0 cc/min/mg. Besides, in data set [3], the “radioactive zinc in Skeletal Muscle” value came to 5.2 cc/min/mg and the “radioactive zinc in Uterus” value is listed as 14.0 cc/min/mg. In addition, in data set [4], the “radioactive zinc in Epididymis” value is listed as “Negligible”, the “radioactive zinc in Seminal Vesicle” value was “Negligible” and the “radioactive zinc in Testes” value was “Negligible”.

As to `[Ca+2].[Cl-].[Cl-]` [inorganic calcium, calcium chloride], the “radioactivity in hypothalamus, mean corrected counts per minute per milligram of tissue” value in data set [5] is 67.1±8.4 cc/min/mg.

Consider zinc-arginine chelate [GROUP I], for which the stability constant in data set [2] is reported as 10^7.
